Results on two substances are retold here after PMC11946789, “Two Amino Acid Substitutions Improve the Pharmacological Profile of the Snake Venom Peptide Mambalgin” (Toxins, 2025).

Assay [1] relates to rASIC1b. Conditions: literature, cited from earlier work.
In assay [2] the test system is rASIC1a/3. The following applies: reported in literature; cited from earlier work.
The target in assay [3] is rat ASIC1a channel, homomeric (rat) (UniProt P55926).
For assay [4] the target is unchanged. The source holds these as a separate data set.
The target in assay [5] is rat ASIC1b channel, homomeric (rat) (UniProt P55926).
Chain of rat ASIC1b channel, homomeric (rat) (P55926 other isoform, or with tags, fused parts or gaps): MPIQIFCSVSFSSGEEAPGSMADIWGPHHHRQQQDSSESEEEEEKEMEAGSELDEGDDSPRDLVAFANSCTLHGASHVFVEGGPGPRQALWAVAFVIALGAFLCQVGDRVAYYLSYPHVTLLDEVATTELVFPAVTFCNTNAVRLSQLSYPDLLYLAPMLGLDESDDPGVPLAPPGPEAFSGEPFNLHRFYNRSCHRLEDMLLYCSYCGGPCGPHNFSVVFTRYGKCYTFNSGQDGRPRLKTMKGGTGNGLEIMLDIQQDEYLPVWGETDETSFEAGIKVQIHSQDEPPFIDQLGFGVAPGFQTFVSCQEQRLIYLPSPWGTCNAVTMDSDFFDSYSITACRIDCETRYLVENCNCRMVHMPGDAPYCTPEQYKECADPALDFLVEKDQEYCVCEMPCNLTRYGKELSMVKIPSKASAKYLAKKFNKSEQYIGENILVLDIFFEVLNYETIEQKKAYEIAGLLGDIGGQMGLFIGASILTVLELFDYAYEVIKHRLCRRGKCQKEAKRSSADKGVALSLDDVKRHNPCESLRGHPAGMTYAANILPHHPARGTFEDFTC

Where two headings read alike, the source gives them in different places. Where no end group is shown, it is not given here.

Chain of rat ASIC1a channel, homomeric (rat) (P55926 whole entry): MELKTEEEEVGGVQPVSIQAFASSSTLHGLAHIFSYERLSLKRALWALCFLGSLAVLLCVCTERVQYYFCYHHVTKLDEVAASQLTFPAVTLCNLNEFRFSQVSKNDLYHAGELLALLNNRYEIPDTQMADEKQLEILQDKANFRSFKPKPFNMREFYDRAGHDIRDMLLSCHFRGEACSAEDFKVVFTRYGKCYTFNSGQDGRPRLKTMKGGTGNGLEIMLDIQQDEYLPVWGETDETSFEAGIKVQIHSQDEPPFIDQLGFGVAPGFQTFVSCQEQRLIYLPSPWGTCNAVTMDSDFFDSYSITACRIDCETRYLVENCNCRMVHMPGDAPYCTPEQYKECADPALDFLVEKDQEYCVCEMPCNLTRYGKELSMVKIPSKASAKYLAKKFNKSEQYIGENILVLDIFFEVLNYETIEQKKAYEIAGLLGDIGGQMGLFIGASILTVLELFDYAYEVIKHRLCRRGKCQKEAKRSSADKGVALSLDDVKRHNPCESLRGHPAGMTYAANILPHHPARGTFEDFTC

As for “Mamb-1 (LKCYQHGKVVTCHRDMKFCYHNTGMPFRNLKLILQGCSSSCSETENNKCCSTDRCNK; ends and bridges not checked; cysteine pairing not given here; UniProt P0DKR6 22-78, looked up)”, the concentration for half-maximal inhibition (IC50) (usually the concentration that gives 50% inhibition) in assay [1] (ref 21) is 192 nM; in assay [1] (ref 27) it was 39 nM. Further, the “effect on rASIC1a/3” value in assay [2] is listed as “no effect”.

Regarding “mambalgin (Mamb), wild-type peptide (from UniProt P0DKS3 1-57)”, the IC50 of inhibition of pH 5.5-evoked currents of homomeric rASIC1a in Xenopus oocytes (TEVC; peptide applied for 30 s at pH 7.4) in assay [3] is 110 nM. Further, in assay [4], the IC50 of inhibition of pH 6.7-evoked currents of homomeric rASIC1a in Xenopus oocytes (TEVC; peptide applied for 30 s at pH 7.4) is 86 nM. Also, in assay [5], the IC50 of inhibition of pH 5.5-evoked currents of homomeric rASIC1b in Xenopus oocytes (TEVC; peptide applied for 30 s at pH 7.4) was found to be 119 nM.
